Laboratory results as given in patent US8962662B2, “Antimicrobial compositions and methods of use thereof” (Byocoat Enterprises, Inc., priority 2011, dated 2015).
“Also recorded” adds a separate entry of the source.

Assays:
Salmonella = experiment: Pathogenic testing for salmonella presence on treated poultry carcass samples after 7 day incubation; type: cell-based; settings: for salmonella prevalence rate (samples tested positive): after 7 day incubation
Procedure: (§1) The following solutions were prepared. A cetylpyridinium chloride (CPC) solution was prepared by combining 1.0 g of cetylpyridinium chloride (CAS No. 123-03-05) in 100 mL of water to form a nominal 1.0 wt % CPC test solution. An epsilon-polylysine (EPL) solution was prepared by combining 4.3 g epsilon-polylysine (CAS No. 25104-18-1) in water to form 100 mL of aqueous solution to form a nominal 4.3 wt % EPL test solution. The combination test solution was prepared by combining 1.0 g of cetylpyridinium chloride and 4.3 g epsilon-polylysine in water to form 100 mL of aqueous solution to form a standard concentration combination solution, and 3.7 g of this standard concentration solution was diluted up to 100 mL to form a combination test solution, which is diluted roughly 27-fold from the from the standard concentration solution.
(§2) The following test method was used. Whole poultry carcasses were collected from the processing line following evisceration and rinse. The carcasses were then treated with the CPC, EPL, or combined CPC+EPL products and dilution rates as listed above, using a Lillard spray application for 5 seconds. Following 10 seconds of dwell time, a 25 gram sample of the product was collected and immediately tested to establish a control sample set-point, and 325 grams of the same carcass were incubated at 37° C. for 168 hours (7 days). Following the incubation cycle, a second 25 gram sample was collected from the 325 gram control for testing evaluation of yeast and mold growth. A second 25 gram composite sample was collected from the same 325 gram control for pathogenic testing for salmonella presence. All samples were tested using AOAC accredited methods in an AOAC accredited API examined laboratory. Confirmation (split) samples were processed at ABC Research Laboratory.

yeast and mold = experiment: Yeast and mold growth (CFU) on whole poultry carcasses after spray treatment, day 1 versus day 7; type: cell-based; settings: for log growth in yeast and mold over 7 days: day 7 minus day 1 log average
Procedure: as §1, §2

Compound | salmonella prevalence rate (samples tested positive) (Salmonella; CPC (1.0%) only) [%] | log growth in yeast and mold over 7 days (yeast and mold; CPC (1.0%) only) [log] | Log Avg, CPC Day 7 (yeast and mold; average of 10 samples, cetylpyridinium chloride (1.0%), after 7 days at 37° C.) | Log Avg, CPC Day 1 (yeast and mold; average of 10 samples, cetylpyridinium chloride (1.0%), day 1 set-point) | seven-day samples tested positive for Salmonella (Salmonella; EPL (4.3%) only, 10 samples) | salmonella prevalence rate (samples tested positive) (Salmonella; EPL (4.3%) only) [%] | Salmonella, EPL Day 7 (Salmonella; ε-poly-L-lysine (4.3%), after 7 days at 37° C.) | log growth in yeast and mold over 7 days (yeast and mold; EPL (4.3%) only) [log] | Log Avg, EPL Day 7 (yeast and mold; average of 10 samples, ε-poly-L-lysine (4.3%), after 7 days at 37° C.) | Log Avg, EPL Day 1 (yeast and mold; average of 10 samples, ε-poly-L-lysine (4.3%), day 1 set-point)
CCCCCCCCCCCCCCCC[n+]1ccccc1 [CPC, cetylpyridinium chloride] | 20 | 4.995 | 7.264 | 2.269 |  |  |  |  |  | 
ε-poly-L-lysine [EPL] |  |  |  |  | 4 of 10 | 40 | NEGATIVE; also recorded: POSITIVE | 3.677 | 6.97 | 3.293
